In US5763596A, “C-4' modified adenosine kinase inhibitors” (Metabasis Therapeutics, Inc., priority 1996, dated 1998):
Counter-ions that a name gives are not always drawn.

Tests used:
Rats = test: anti-inflammatory activity, carrageenan paw; type: in vivo, rat; settings: 10 mg/kg, swelling after 3 hours; for Carrageenan Paw (% inh) i.p.: 30 min before carrageenan; for Carrageenan Paw (% inh) p.o.: 1 h before carrageenan
Protocol: Carrageenan (Type λ) was suspended in sterile PBS at 1% (w/v), autoclaved for 30 minutes, and stored at room temperature. Rats were pretreated with vehicle or AK inhibitor (10 mg/kg) by oral gavage or i.p. administration and the volume of the left hind paw was measured using a water displacement plethysmometer (Stoelting Co., Wood Dale, Ill.). One hour after oral treatment or 30 minutes after i.p. treatment, the rats were briefly anaesthetized, and 0.1 ml of the carrageenan solution was injected subcutaneously into the planar surface of the left hind paw. The ensuing paw swelling was measured by plethysmometry after 3 hours. The paw volume in milliliters was subtracted from the pre-injection paw volume. Data are presented in Table 8 as the percent inhibition of paw swelling in AK inhibitor treated animals, compared to vehicle treated control animals.

adenosine kinase = adenosine kinase (AK) inhibition; type: biochemical, pig heart or recombinant human; settings: 0.5 μM [U-14C] adenosine, pH 7.0, 20 minutes
Protocol: Adenosine kinase activity was measured essentially as described by Yamada et al. (Yamada, Y., Goto, H., Ogasawara, N. (1988) Biochim. Biophys. Acta 660, 36-43.) with a few minor modifications. […] Natl. Acad. Sci. […] The reactions were incubated for 20 minutes at […] The assay was quenched upon spotting 30 μL aliquots onto 2 cm^2 pieces of Whatman DE81 anion exchange paper. The papersquares were washed for 3 minutes in 6 L distilled/deionized water to remove the unreacted adenosine. The washed squares were rinsed in 95% ethanol and dried in an oven at 100° C. for 10 minutes. The amount of ^14 C-AMP was quantified by scintillation counting.

male SA rats [1] = test: rat skin lesion model, inhibition of neutrophil accumulation induced by carrageenan; type: in vivo
Protocol: The dorsal skin of male SA rats was shaved and carrageenan (Type λ) or phosphate-buffered saline was injected intradermally. Three hours later, the injection sites were biopsied and weighed. Neutrophil content of the skin biopsies was measured as the quantity of myeloperoxidase (MPO) present in a tissue homogenate. The excised, weighed skin pieces were placed in 4 ml 0.5% mixed alkyl trimethylammonium bromide and homogenized at the highest speed for 15 seconds in a Polytron homogenizer (Brinkmann Instruments, Westbury, N.Y.). Lipids were extracted by adding 1 ml of dichloromethane to the homogenate, vortexing vigorously, and centrifuging at 1000 g, 5° C. for 15 min. Fifty μl of each supernatant was added in duplicate to a 96 well assay plate, along with dilutions of human myeloperoxidase standard. Potassium phosphate buffer (pH 6.1) containing 0.36 mg/ml of o-dianisidine dihydrochloride and 0.001% hydrogen peroxide was added (200 μl/well), and the absorbance at 450 nm was read after 5 min incubation at room temperature. The myeloperoxidase content of each skin piece was calculated from a standard curve constructed using least-square regression, and expressed as units of MPO/g of tissue.
AK inhibitors were administered orally using polyethylene glycol-400 as vehicle or intraperitoneally using dimethylsulfoxide as vehicle, at indicated time before skin lesion injection. For each experiment, the average of all values from saline-induced lesions was calculated. This baseline value was then subtracted from values obtained from carrageenan-induced lesions. Percent inhibition for AK inhibitors were calculated from these baseline-corrected values.

Rats (male, Simonsen) = test: formalin paw model; type: in vivo, rat; parameters: concentration or dose not given beside the values; settings: oral, 90 min before formalin; for % Inhibition Phase 1 Composite score: 1.7-5 min post-formalin; for % Inhibition Phase 2 Composite score: 10.3-30 min post-formalin
Protocol: In this assay, injection of formalin, an irritant, into the hindpaw of rats typically evokes a biphasic response of pain-related behaviors. Phase 1 of the response which is brief, lasting approximately 0-5 min post-injection,is followed by a more prolonged phase 2, lasting approximately 10-80 min post-injection. Phase 1 behavior is thought to be a direct effect of the irritant on nociceptors at the injection site while phase 2 behavior is thought to include a hyperalgesic component mediated by sensitization of neuronal elements within the spinal cord. Studies from other laboratories have found the first portion of Phase 2 (sometimes referred to as Phase 2a) to be most responsive to pharmacological manipulation.
Rats (male, Simonsen) weighing between 100-200 g, are used in the present experiments. For screening purposes drugs are administered orally 90 min prior to initiation of formalin test. At designated intervals the animals in groups of 4 are placed individually in a small animal restrainer with the right hindpaw accessible through a hole in the bottom of the restrainer. The formalin paw assay is initiated by the injection using a 30G needle of 50 μl of a 5% formalin solution in saline into the right plantar surface of each hindpaw. The rat is then immediately placed in a separate plexiglass box and scoring (described below) of the animal's behavior is begun at 1.7 min after formalin injection. The instantaneous behavior of each animal in a group of 4 was observed and assigned a score once in each 20 second interval. This sequence is repeated over a 30 min period. The scoring protocol is an adaptation of the method published by Dubuisson and Dennis (Pain 4:161-174, 1977) which assigns a score from 0-3 as follows:
0--no discernible favoring of injected paw, weight evenly distributed
1--injected paw is favored, rests lightly on floor
2--injected paw is elevated
3--injected paw is vigorously licked, bitten or shake
Scores are continuously recorded directly onto an Excel spreadsheet. […] 2) the total number of incidences specifically of licking/biting behavior is summed over Phase 2 and mean values determined from 6 different animals with results expressed as % inhibition compared to vehicle control.

Female SA rats = test: liver toxicity, serum SGOT, SGPT and total bilirubin; type: in vivo, rat; parameters: unit not given here; settings: 2 x 37.5 μmol/kg i.v. infusion (total 75 μmol/kg), 12 h after second dose
Protocol: Female SA rats (150-200 g) were anesthetized with halothane and cannulated via the internal jugular vein. The animals were allowed to recover for 3 days. […] Twelve hours later, an additional 37.5 μmol kg was infused over 40 minutes (total dose=75 μmol/kg). Twelve hours after the second dose, the animals were anesthetized with halothane and exsanguinated through the descending aorta. Serum was prepared and liver enzymes (serum glutamic-oxaloacetic transaminase (SGOT), serum glutamic-pyruvic transaminase (SGPT)) and total bilirubin in the serum samples were determined by a commercial laboratory.

male SA rats [2] = test: anticonvulsant activity, maximal electroshock (MES) model; type: in vivo; settings: Rattus norvegicus, ip, 1 h before MES; >5 / <5: fewer / more than 50% of animals inhibited at 5 mg/kg in initial screen
Protocol: The anticonvulsant activity of the tested compounds was evaluated in male SA rats (100-150 g, Simonsen) using the maximal electroshock (MES) model described in Swinyard et al., Antiepileptic Drugs, 3d Ed. at 85-102 (Levy, et al., eds.), NY: Raven Press (1989). The rats were maintained on a 12/12 light/dark cycle in temperature controlled facilities with free access to food and water. For p.o. administration, the animals are fasted overnight, prior to the experiment. One hour prior to seizure testing, the animals were injected interperitoneally (ip) or orally (per os, po) with one of various doses of test compound dissolved in DMSO or PEG 400.
Maximal electroshock seizures (MES) were induced by administering a 150 mA, 60 Hz current for 0.2 seconds via corneal electrodes using a Wahlquist Model H stimulator. […] This endpoint was expressed as the percentage of animals in which the response was inhibited. Typically, compounds were screened initially at one hour following a dose of 5 mg/kg ip. […] The results for exemplary compounds of the invention are set forth in Table 8, expressed as ED50 values.

## 4-N-Phenylamino-5-phenyl-7-(4-C-methyl-β-D-ribofuranosyl)pyrrolo[2,3- d]pyrimidine [#81]
Rats
  Carrageenan Paw (% inh) i.p.: 46%
Adenosine kinase
  IC50: 45 nM
Male SA rats [1]; p.o., pretreatment 60 min, 10 mg/kg
  % inhibition of neutrophil accumulation: 0%
Male SA rats [1]; p.o., pretreatment 60 min, 20 mg/kg
  % inhibition of neutrophil accumulation: 26%
Male SA rats [1]; p.o., pretreatment 60 min, 30 mg/kg
  % inhibition of neutrophil accumulation: 40%
Rats (male, Simonsen)
  % Inhibition Phase 1 Composite score: 24.8%
  % Inhibition Phase 2 Composite score: 35.1%
  % Inhibition Phase 2. Licking/biting: 67.8%

## O[C@@H]1[C@H](O)CO[C@H]1n1cc(-c2ccc(F)cc2)c2c(Nc3ccc(F)cc3)ncnc21 [#29]
Female SA rats
  average serum Total Bilirubin: 0.16
  average serum content of SGOT: 130
  average serum content of SGPT: 30

## O[C@@H]1[C@H](O)CO[C@H]1n1cc(-c2ccccc2)c2c(Nc3ccc(CCN4CCNCC4)cc3)ncnc21 [#43, 4-N-[4-(2-(1-Piperazino)ethyl)phenyl]amino-5-phenyl-7-(β-D-erythrofuranosyl)pyrrolo[2,3-d]pyrimidine trihydrochloride salt]
Rats
  Carrageenan Paw (% inh) i.p.: 65%
  Carrageenan Paw (% inh) p.o.: 34%
Adenosine kinase
  IC50: 3.5 nM
Female SA rats
  average serum Total Bilirubin: 0.1
  average serum content of SGOT: 99
  average serum content of SGPT: 58

## OCC1(CO)O[C@@H](n2cc(-c3ccccc3)c3c(Nc4ccccc4)ncnc32)[C@H](O)[C@@H]1O [compound 1]
Rats
  Carrageenan Paw (% inh) i.p.: 3%
  Carrageenan Paw (% inh) p.o.: 18%
Adenosine kinase
  IC50: 1.2 nM
Female SA rats
  average serum Total Bilirubin: 0.1
  average serum content of SGOT: 65
  average serum content of SGPT: 53

## O[C@@H]1[C@H](O)CO[C@H]1n1cc(-c2ccccc2)c2c(Nc3ccccc3)ncnc21 [compound 27]
Rats
  Carrageenan Paw (% inh) i.p.: 44%
  Carrageenan Paw (% inh) p.o.: 12%
Adenosine kinase
  IC50: 4 nM
Male SA rats [1]; i.p., pretreatment 30 min, 3 mg/kg
  % inhibition of neutrophil accumulation: 2%
Male SA rats [1]; i.p., pretreatment 30 min, 10 mg/kg
  % inhibition of neutrophil accumulation: 59%
Male SA rats [1]; i.p., pretreatment 30 min, 30 mg/kg
  % inhibition of neutrophil accumulation: 89%
Male SA rats [1]; i.p., pretreatment 60 min, 10 mg/kg
  % inhibition of neutrophil accumulation: 60%
Male SA rats [1]; i.p., pretreatment 120 min, 10 mg/kg
  % inhibition of neutrophil accumulation: 14%
Male SA rats [1]; i.p., pretreatment 180 min, 10 mg/kg
  % inhibition of neutrophil accumulation: 2%
Male SA rats [1]; i.p., pretreatment 240 min, 10 mg/kg
  % inhibition of neutrophil accumulation: 0%
Male SA rats [1]; i.p., pretreatment 360 min, 10 mg/kg
  % inhibition of neutrophil accumulation: 0%
Male SA rats [2]
  ED50 at 5 mg/kg: < 5 mg/kg
Female SA rats
  average serum Total Bilirubin: 0.14
  average serum content of SGOT: 114
  average serum content of SGPT: 41
Rats (male, Simonsen)
  % Inhibition Phase 1 Composite score: 25.5%
  % Inhibition Phase 2 Composite score: 47.6%
  % Inhibition Phase 2. Licking/biting: 77.5%

## CN(C)Cc1ccc(Nc2ncnc3c2c(-c2ccccc2)cn3[C@@H]2O[C@@](C)(CO)[C@@H](O)[C@H]2O)cc1 [compound 64]
Adenosine kinase
  IC50: 70 nM
Male SA rats [2]
  ED50 at 5 mg/kg: > 5 mg/kg

## C[C@]1(CO)O[C@@H](n2cc(-c3ccccc3)c3c(Nc4ccccc4)ncnc32)[C@H](O)[C@@H]1O [compound 81]
Adenosine kinase
  IC50: 2000 nM

## O[C@H]1[C@H](n2cc(-c3ccccc3)c3c(Nc4ccc(F)cc4)ncnc32)OC2(CC2)[C@H]1O [compound 150]
Rats
  Carrageenan Paw (% inh) i.p.: 78%
  Carrageenan Paw (% inh) p.o.: 80%
Adenosine kinase
  IC50: 0.3 nM
Male SA rats [2]
  ED50 at 5 mg/kg: 0.23 mg/kg
Female SA rats
  average serum Total Bilirubin: 1.58
  average serum content of SGOT: 560
  average serum content of SGPT: 155

## Nc1ncnc2c1c(I)cn2[C@@H]1OC2(CC2)[C@@H](O)[C@H]1O [compound 175]
Adenosine kinase
  IC50: 600 nM

## O[C@@H]1[C@H](O)CO[C@H]1n1cc(-c2ccccc2)c2c(Nc3ccc(Cl)cc3)ncnc21 [compound 299]
Rats
  Carrageenan Paw (% inh) i.p.: 20%
  Carrageenan Paw (% inh) p.o.: 28%
Adenosine kinase
  IC50: 40 nM

## Nc1ncnc2c1c(I)cn2[C@@H]1OC[C@@H](O)[C@H]1O [compound 300]
Rats
  Carrageenan Paw (% inh) i.p.: 90%
  Carrageenan Paw (% inh) p.o.: 91%
Adenosine kinase
  IC50: 6 nM

## O[C@@H]1[C@H](O)CO[C@H]1n1cc(-c2ccccc2)c2c(Nc3ccc(CCN4CCOCC4)cc3)ncnc21 [compound 301]
Rats
  Carrageenan Paw (% inh) i.p.: 21%
  Carrageenan Paw (% inh) p.o.: 39%
Adenosine kinase
  IC50: 1 nM

## COC[C@]1(CO)O[C@@H](n2cc(-c3ccccc3)c3c(Nc4ccc(F)cc4)ncnc32)[C@H](O)[C@@H]1O [compound 352]
Adenosine kinase
  IC50: 400 nM

## COC[C@@]1(CO)O[C@@H](n2cc(-c3ccccc3)c3c(Nc4ccc(F)cc4)ncnc32)[C@H](O)[C@@H]1O [compound 372]
Adenosine kinase
  IC50: 24 nM
Male SA rats [2]
  ED50 at 5 mg/kg: > 5 mg/kg

## NC[C@]1(CO)O[C@@H](n2cc(-c3ccccc3)c3c(Nc4ccc(F)cc4)ncnc32)[C@H](O)[C@@H]1O [compound 392]
Adenosine kinase
  IC50: 1100 nM

## O[C@@H]1[C@H](O)CO[C@H]1n1nc(-c2ccc(Cl)cc2)c2c(Nc3ccccc3)ncnc21 [compound 432]
Rats
  Carrageenan Paw (% inh) i.p.: 24%
  Carrageenan Paw (% inh) p.o.: 15%
Adenosine kinase
  IC50: 90 nM
Male SA rats [2]
  ED50 at 5 mg/kg: > 5 mg/kg
